Among the data in patent US7465804B2, “Compounds, pharmaceutical compositions and methods for their use in treating metabolic disorders” (Amgen Inc., priority 2005, dated 2008) are EC50 values, retold here.

Bounds are passed on as bounds.

T1 sequence (O14842 whole entry): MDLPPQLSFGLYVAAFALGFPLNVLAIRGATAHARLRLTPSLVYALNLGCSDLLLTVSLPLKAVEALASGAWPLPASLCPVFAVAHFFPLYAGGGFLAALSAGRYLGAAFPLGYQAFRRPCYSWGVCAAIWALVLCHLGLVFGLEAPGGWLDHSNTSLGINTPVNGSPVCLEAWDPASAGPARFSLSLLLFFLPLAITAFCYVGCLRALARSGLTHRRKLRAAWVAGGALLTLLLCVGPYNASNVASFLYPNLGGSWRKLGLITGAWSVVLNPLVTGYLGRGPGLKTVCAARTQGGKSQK

The first assay addresses T1, human GPR40 (Homo sapiens, UniProt O14842).
T1 construct: host or cells: CHO cells
Briefly: Cell based aequorin assay using human GPR40. The settings on record: CHO cells stably transfected with GPR40 and aequorin; 0.01% HSA; aequorin luminescence; read-out: Relative EC50. How it is done: Cell-based aequorin assays were employed to characterize the modulatory activity of compounds on the GPR40 signaling pathway. In an exemplary assay, CHO cells were stably transfected with both GPR40 and Aequorin (Euroscreen). Cells were detached from the tissue culture dish with 2 mL of trypsin (0.25% (w/v)). Trypsinization was halted with 28 mL of Hanks Buffered Salt Solution containing 20 mM Hepes (H/HBSS) and 0.01% fatty acid-free human serum albumin (HSA). Coelantrazine was added to 1 ug/mL, and the cells were incubated for 2 hours at room temperature. Compounds were dissolved in DMSO for preparation of 10 mM stock solutions. Compounds were diluted in H/HBSS containing either 0.01% HSA. Serial dilutions of the test compounds were prepared to determine dose response.
Aequorin luminescence measurements were made using an EG&G Berthold 96-well luminometer, and the response was measured over a 20 second interval after cells and compounds were mixed. The maximum relative light units was plotted to determine dose response. The EC50 (effective concentration to reach 50% maximal response) was determined from the dose response plot.
Table 1 presents representative data (EC50 values) obtained for exemplary compounds of the invention for the relative activation of human GPR40. […]
As to `CCCCOc1ccc(C)cc1-c1ccc(COc2ccc([C@H](CC(=O)O)C(=O)N(C)C)cc2)cc1`, the EC50 (as a rule, the concentration giving half of the maximal effect) was 0.01 to 0.1 µM. Same read-out and setting: with `Cc1nc(-c2ccc(C(F)(F)F)cc2)sc1COc1ccc([C@H](CC(=O)O)C(=O)N(C)C)cc1` the figure was 0.01 to 0.1 µM; with `Cn1ccnc1C(CC(=O)O)c1ccc(OCc2cccc(-c3ccc(C(F)(F)F)cc3)c2)cc1` (centres unmarked), 0.1 to 1 µM. Still for that read-out and setting: the figure for `CCCCOc1ccc(C)cc1-c1ccc(COc2ccc([C@H](CC(=O)O)c3nccn3C)cc2)cc1` is 0.1 to 1 µM; for `Cn1ccnc1C(CC(=O)O)c1ccc(OCc2cccc(Oc3ccccc3)c2)cc1` (centres unmarked) it is 0.1 to 1 µM. The same measure, in the same setting: the figure for `Cc1nc(-c2ccc(C(F)(F)F)cc2)sc1COc1ccc([C@H](CC(=O)O)c2nccn2C)cc1` is 0.1 to 1 µM; for `CCOc1cccc(-c2ccc(COc3ccc([C@H](CC(=O)O)c4nccn4C)cc3)cc2)c1` it is 0.1 to 1 µM; for `Cc1c(Cl)cccc1-c1cccc(COc2ccc([C@H](CC(=O)O)c3nccn3C)cc2)c1` it is 0.01 to 0.1 µM. Consider `Cc1ccc(Cl)cc1-c1cccc(COc2ccc([C@H](CC(=O)O)c3nccn3C)cc2)c1`, for which the EC50 was 0.01 to 0.1 µM. Same read-out and setting: the figure for `O=C(O)CC(c1ccc(OCc2cccc(-c3ccc(C(F)(F)F)cc3)c2)cc1)c1ncco1` (centres unmarked) is 0.01 to 0.1 µM. On the same count and under the same terms, the figure for `CCCCOc1ccc(C)cc1-c1ccc(COc2ccc(C(CC(=O)O)c3ncco3)cc2)cc1` (centres unmarked) is 0.01 to 0.1 µM.

As to `CCCCOc1ccc(C)cc1-c1ccc(COc2ccc([C@@H](CC(=O)O)c3ncco3)cc2)cc1`, the EC50 lay within 0.1 to 1 µM. `Cc1nc(-c2ccc(C(F)(F)F)cc2)sc1COc1ccc(C(CC(=O)O)c2ncco2)cc1` (centres unmarked): the EC50 was 0.01 to 0.1 µM. On the same count and under the same terms, with `CCOc1cccc(-c2ccc(COc3ccc(C(CC(=O)O)c4ncco4)cc3)cc2)c1` (centres unmarked) the figure was 1 to 10 µM; with `Cc1cc(Cl)ccc1-c1cccc(COc2ccc(C(CC(=O)O)c3ncco3)cc2)c1` (centres unmarked), 0.1 to 1 µM. The same measure, in the same setting: with `O=C(O)CC(c1ccc(OCc2cccc(Oc3ccccc3)c2)cc1)c1ncco1` (centres unmarked) the figure was 0.1 to 1 µM; with `Cc1cc(Cl)ccc1-c1cccc(COc2ccc([C@H](CC(=O)O)c3ncco3)cc2)c1`, 0.01 to 0.1 µM. On the same count and under the same terms, the figure for `Cc1cc(Cl)ccc1-c1cccc(COc2ccc([C@@H](CC(=O)O)c3ncco3)cc2)c1` is 1 to 10 µM; for `CCCCOc1ccc(C)cc1-c1ccc(COc2ccc([C@H](CC(=O)O)c3ncnn3C)cc2)cc1` it is 0.01 to 0.1 µM. In the case of `Cc1nc(-c2ccc(C(F)(F)F)cc2)sc1COc1ccc([C@H](CC(=O)O)c2ncnn2C)cc1`, the EC50 was 0.1 to 1 µM. Still for that read-out and setting: with `CCOc1cccc(-c2ccc(COc3ccc([C@H](CC(=O)O)c4ncnn4C)cc3)cc2)c1` the figure was 0.1 to 1 µM; with `CCCCOc1ccc(C)cc1-c1ccc(COc2ccc([C@H](CC(=O)O)c3nnnn3C)cc2)cc1`, 0.01 to 0.1 µM.

As to `Cc1nc(-c2ccc(C(F)(F)F)cc2)sc1COc1ccc([C@H](CC(=O)O)c2nnnn2C)cc1`, the EC50 lay within 0.01 to 0.1 µM.

In the case of `Cc1c(Cl)cccc1-c1cccc(COc2ccc([C@H](CC(=O)O)c3nnnn3C)cc2)c1`, the EC50 was < 0.01 µM.

Consider `Cc1ccc(Cl)cc1-c1cccc(COc2ccc([C@H](CC(=O)O)c3nnnn3C)cc2)c1`, for which the EC50 lay within 0.01 to 0.1 µM.

Turning to `Cc1cc(Cl)ccc1-c1cccc(COc2ccc([C@H](CC(=O)O)C(=O)N(C)C)cc2)c1` [Example 3, (S)-3-[4-(4′-chloro-2′-methyl-biphenyl-3-ylmethoxy)-phenyl]-N,N-dimethyl-succinamic acid], the EC50 was 0.01 to 0.1 µM. Same read-out and setting: the figure for `Cc1ccc(-c2nc(C)c(COc3ccc([C@H](CC(=O)O)C(=O)N(C)C)cc3)s2)cc1` [Example 4, (S)-4-(dimethylamino)-3-(4-((4-methyl-2-p-tolylthiazol-5-yl)methoxy)phenyl)-4-oxobutanoic acid] is 0.01 to 0.1 µM; for `Cn1ncnc1[C@@H](CC(=O)O)c1ccc(OCc2cccc(-c3ccc(C(F)(F)F)cc3)c2)cc1` [Example 5, (S)-3-(2-methyl-2H-1,2,4-triazol-3-yl)-3-[4-(4′-trifluoromethyl-biphenyl-3-ylmethoxy)-phenyl]-propionic acid] it is 0.1 to 1 µM.

Regarding `Cc1cc(Cl)ccc1-c1cccc(COc2ccc([C@H](CC(=O)O)c3ncnn3C)cc2)c1` [Example 6, (S)-3-[4-(4′-chloro-2′-methyl-biphenyl-3-ylmethoxy)-phenyl]-3-(2-methyl-2H-1,2,4-triazol-3-yl)-propionic acid], the EC50 lay within 0.01 to 0.1 µM.

With `Cn1nnnc1[C@@H](CC(=O)O)c1ccc(OCc2cccc(-c3ccc(C(F)(F)F)cc3)c2)cc1` [Example 7, (S)-3-(1-methyl-1H-tetrazol-5-yl)-3-[4-(4′-trifluoromethyl-biphenyl-3-ylmethoxy)-phenyl]-propionic acid], the concentration giving a half-maximal response (EC50) lay within 0.01 to 0.1 µM.

`Cc1cc(Cl)ccc1-c1cccc(COc2ccc([C@H](CC(=O)O)c3nnnn3C)cc2)c1` [Example 8, (S)-3-[4-(4′-chloro-2′-methyl-biphenyl-3-ylmethoxy)-phenyl]-3-(1-methyl-1H-tetrazol-5-yl)-propionic acid]: the EC50 lay in the range of 0.01 to 0.1 µM.

Regarding `Cc1cc(Cl)ccc1-c1cccc(COc2ccc([C@H](CC(=O)O)c3nccn3C)cc2)c1` [Example 9, (S)-3-[4-(4′-chloro-2′-methyl-biphenyl-3-ylmethoxy)-phenyl]-3-(1-methyl-1H-imidazol-2-yl)-propionic acid], the EC50 fell in the range of 0.01 to 0.1 µM. On the same count and under the same terms, the figure for `CCCCOc1ccc(C)cc1-c1ccc(COc2ccc([C@H](CC(=O)O)c3ncco3)cc2)cc1` [Example 10, (S)-3-[4-(5′-methyl-2′-butoxybiphenylmethoxy)phenyl]-3-(oxazol-2-yl)propanoic acid] is 0.01 to 0.1 µM.

In the next assay the test system is islet cells. Nature of the assay: Insulin secretion assay in human islet cells. It is filed as cell-based. The settings on record: human islet cells from cadaveric donors; KRBH with 11.2 mM glucose; insulin by SPA; read-out: EC50, stimulation of insulin secretion from islet cells. Here is the method:
Human islets were isolated from cadaveric donors. Islets were treated with trypsin (0.25% (w/v) and cells were seeded in 96-well plates containing 3,000 cells per well. Cells were cultured in Roswell Park Memorial Institute (RMPI) media containing 10% fetal bovine serum.
For determination of insulin secretion, media was removed from islet cells and replaced with Krebs-Ringer bicarbonate buffer containing 10 mM HEPES (KRBH) and 2 mM glucose. After one hour incubation, media was replaced with KRBH conaining 11.2 mM glucose and test compounds. Insulin released into the medium from the islet cells was measured using scintillation proximity assay (SPA).
Consider `Cc1ccc(-c2nc(C)c(COc3ccc([C@H](CC(=O)O)C(=O)N(C)C)cc3)s2)cc1` [Example 4, (S)-4-(dimethylamino)-3-(4-((4-methyl-2-p-tolylthiazol-5-yl)methoxy)phenyl)-4-oxobutanoic acid], for which the EC50 was < 1 µM. On the same count and under the same terms, the figure for `Cc1cc(Cl)ccc1-c1cccc(COc2ccc([C@H](CC(=O)O)c3nccn3C)cc2)c1` [Example 9, (S)-3-[4-(4′-chloro-2′-methyl-biphenyl-3-ylmethoxy)-phenyl]-3-(1-methyl-1H-imidazol-2-yl)-propionic acid] is < 1 µM.
